Tested on: RAW264.7
Assay: Cytotoxicity against mouse RAW264.7 cells assessed as reduction in cell viability at 10 uM incubated for 24 hrs by CCK-8 assay
Assay type: toxicity, cell-based
Details: raw264.7, 24 h

**Q.** Which Activity does the source give for CN(/C=C\c1ccccc1)C(=O)c1nc(-c2ccco2)n(-c2ccccc2)n1 here?
**A.** Non-toxic

**Q.** For CN(/C=C\c1ccccc1)C(=O)c1nc(-c2cccc(Cl)c2)n(-c2ccccc2)n1, which Activity is on record?
**A.** Non-toxic

**Q.** With Cc1nc(C(=O)N(C)/C=C\c2ccccc2)nn1-c1ccccc1 as the compound, how does the Activity read?
**A.** Non-toxic

**Q.** How did the Activity turn out when CCCc1nc(C(=O)N(C)/C=C\c2ccccc2)nn1-c1ccccc1 was run?
**A.** Non-toxic

**Q.** Which Activity does the source give for Cc1cccc(-c2nc(C(=O)N(C)/C=C\c3ccccc3)nn2-c2ccccc2)c1 here?
**A.** Non-toxic

**Q.** With CN(/C=C\c1ccccc1)C(=O)c1nc(-c2cccs2)n(-c2ccccc2)n1 as the compound, how does the Activity read?
**A.** Non-toxic

**Q.** CN(/C=C\c1ccccc1)C(=O)c1nc(-c2ccc3ccccc3c2)n(-c2ccccc2)n1 was tested. Which Activity did it give?
**A.** Non-toxic

**Q.** CN(/C=C\c1ccccc1)C(=O)c1nc(-c2ccc(C(F)(F)F)cc2)n(-c2ccccc2)n1 was tested. Which Activity did it give?
**A.** Non-toxic

**Q.** How did the Activity turn out when Cc1ccc(-c2nc(C(=O)N(C)/C=C\c3ccccc3)nn2-c2ccccc2)cc1 was run?
**A.** Non-toxic

**Q.** With CC(C)c1nc(C(=O)N(C)/C=C\c2ccccc2)nn1-c1ccccc1 as the compound, how does the Activity read?
**A.** Non-toxic

**Q.** With CN(/C=C\c1ccccc1)C(=O)c1nc(-c2ccccc2Cl)n(-c2ccccc2)n1 as the compound, how does the Activity read?
**A.** Non-toxic

**Q.** How did the Activity turn out when CN(/C=C\c1ccccc1)C(=O)c1nc(-c2ccc(Cl)cc2)n(-c2ccccc2)n1 was run?
**A.** Non-toxic
